Data taken from US10130101B2 (priority 2015, dated 2018).

Legend:
[1] = system: pyrethroid resistant bed bugs, Cimex lectularius (ECL-05 strain); type: in vivo; settings: day 7; 0.05% imidacloprid formulation, not diluted; direct spray 0.50 g per replication
Experimental: Treatments 1 to 4 were diluted in acetone to 5.5% w/w. Treatment 5 was not diluted.
The ECL-05 strain of bugs was used in the study. This strain represents an aggregate colony of pyrethroid resistant strains of bed bugs from Minnesota, Wisconsin, Florida and New Jersey.
Adult male bed bugs, 5 to 6 weeks old, were sorted from the colonies at the University of Minnesota using a pair of soft tissue forceps (Fisher Scientific, Pittsburgh, Pa., USA). Bed bugs were transferred to Applicant and maintained in a glass jar with a mesh screen top, as described above, in an environmental chamber (Darwin Chamber Company, Saint Louis, Mo., USA) at 27° C. and 65% relative humidity until testing.
For testing, 10 adult males were transferred into specific bed bug spray containers using soft tissue forceps. Bed bug spray containers were constructed by placing a 150 mm Whatman filter paper (Fisher Scientific, Pittsburgh, Pa., USA) onto the top of a stainless steel, round ring (10 cm in diameter and 3.25 cm in height). A second stainless steel ring of similar dimensions was then stacked on top of the base ring creating a double-ring structure with a filter paper surface in between. The sides of the double ring structure were secured with laboratory labeling tape (Fisher Scientific, Pittsburgh, Pa., USA). […]

[2] = system: pyrethroid resistant bed bugs; assay: whole plant or invertebrate; type: in vivo; settings: Cimex lectularius, 168 h; 7 days; imidacloprid at 0.05% w/w
Text: For testing, 10 adult males were transferred into specific bed bug spray containers using soft tissue forceps. Bed bug spray containers were constructed by placing a 150 mm Whatman filter paper (Fisher Scientific, Pittsburgh, Pa., USA) onto the top of a stainless steel, round ring (10 cm in diameter and 3.25 cm in height). A second stainless steel ring of similar dimensions was then stacked on top of the base ring creating a double-ring structure with a filter paper surface in between. The sides of the double ring structure were secured with laboratory labeling tape (Fisher Scientific, Pittsburgh, Pa., USA). In the resulting setup, the filter paper provides a non-abrasive surface for bed bugs to rest on while it also serves to absorb any overspray in the container. Following the transfer of bed bugs from the colony jar, bed bugs were allowed to recover for 1 hour in the spray container before treatment application commenced.
Treatments were administered using a DeVilbiss 151 atomizer (The DeVilbiss Co., Glendale Heights, Ill., USA) attached to a Paasche D500 air compressor (Paasche Airbrush Company, Chicago, Ill., USA). Treatment volume was set at 0.50 g of treatment solution per replication. […]
Mortality at day 7 was analyzed by one-way analysis of variance (ANOVA). […]

In the case of O=[N+]([O-])NC1=NCCN1Cc1ccc(Cl)nc1 [Imidacloprid, imidacloprid], the “Mortality (%)” value [1] is reported as 100.0% and the mortality at 0.05 % strength [2] is reported as 100%.
